Test results: PubChem BioAssay (NCI)
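96-well plates; 48 h exposure; 5 concentrations. Endpoints by linear interpolation between flanking doses. Not reached: highest tested concentration assigned. GI50 marks 50% less growth. TGI is the concentration that stops growth completely.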

Tests used:
Assay in all cases: NCI-60 cell line screen, 48 h; in the data active means GI50 below about 0.43 µM; inactive means the rest
MDA-MB-231 breast = tested on: MDA-MB-231 breast
TK-10 renal = tested on: TK-10 renal
KM12 colon = tested on: KM12 colon
OVCAR-8 ovarian = tested on: OVCAR-8 ovarian
SF-539 CNS = tested on: SF-539 CNS
SK-OV-3 ovarian = tested on: SK-OV-3 ovarian
MOLT-4 leukemia = tested on: MOLT-4 leukemia
A549 NSCLC = tested on: A549 NSCLC
NCI-H226 lung = tested on: NCI-H226 lung
MDA-MB-435 = tested on: MDA-MB-435
CAKI-1 renal = tested on: CAKI-1 renal
RPMI-8226 leukemia = tested on: RPMI-8226 leukemia
BT-549 breast = tested on: BT-549 breast
NCI-H23 lung = tested on: NCI-H23 lung
SR leukemia = tested on: SR leukemia
NCI/ADR-RES ovarian = tested on: NCI/ADR-RES ovarian
LOX IMVI melanoma = tested on: LOX IMVI melanoma
DU-145 prostate = tested on: DU-145 prostate
PC-3 prostate = tested on: PC-3 prostate
U251 CNS = tested on: U251 CNS
M14 melanoma = tested on: M14 melanoma
NCI-H460 lung = tested on: NCI-H460 lung
SN12C renal = tested on: SN12C renal
OVCAR-3 ovarian = tested on: OVCAR-3 ovarian
A498 renal = tested on: A498 renal
EKVX NSCLC = tested on: EKVX NSCLC
HL-60(TB) leukemia = tested on: HL-60(TB) leukemia
MALME-3M melanoma = tested on: MALME-3M melanoma
IGROV1 ovarian = tested on: IGROV1 ovarian
HS 578T breast = tested on: HS 578T breast
HOP-92 NSCLC = tested on: HOP-92 NSCLC
SW-620 colon = tested on: SW-620 colon
SNB-75 CNS = tested on: SNB-75 CNS
SNB-19 CNS = tested on: SNB-19 CNS
SF-295 CNS = tested on: SF-295 CNS
CCRF-CEM leukemia = tested on: CCRF-CEM leukemia
ACHN renal = tested on: ACHN renal
OVCAR-4 ovarian = tested on: OVCAR-4 ovarian
SK-MEL-2 melanoma = tested on: SK-MEL-2 melanoma
NCI-H522 lung = tested on: NCI-H522 lung
SK-MEL-28 melanoma = tested on: SK-MEL-28 melanoma
HCT-15 colon = tested on: HCT-15 colon
COLO 205 colon = tested on: COLO 205 colon
HCC-2998 colon = tested on: HCC-2998 colon
T-47D breast = tested on: T-47D breast
UO-31 renal = tested on: UO-31 renal
SK-MEL-5 melanoma = tested on: SK-MEL-5 melanoma
786-0 renal = tested on: 786-0 renal
HOP-62 NSCLC = tested on: HOP-62 NSCLC
HCT-116 colon = tested on: HCT-116 colon
HT29 colon = tested on: HT29 colon
SF-268 CNS = tested on: SF-268 CNS
OVCAR-5 ovarian = tested on: OVCAR-5 ovarian
UACC-257 melanoma = tested on: UACC-257 melanoma
MCF7 breast = tested on: MCF7 breast
UACC-62 melanoma = tested on: UACC-62 melanoma

C[C@@H]1CN(CC(=O)N2CC(C)(C)c3nc(CO)c(Cc4ccc(F)cc4)cc32)[C@@H](CN2CCOC[C@H]2C)CN1
31.1 µM: TGI (MALME-3M melanoma) | TGI (UACC-257 melanoma)
28.3 µM: TGI (SK-MEL-5 melanoma)
65.8 µM: TGI (UACC-62 melanoma)
21.8 µM: TGI (MDA-MB-231 breast)
41.4 µM: TGI (COLO 205 colon)
71.6 µM: TGI (NCI-H522 lung)
96.2 µM: TGI (A498 renal)
33.1 µM: TGI (LOX IMVI melanoma)
47.8 µM: TGI (T-47D breast)
23.6 µM: TGI (SF-539 CNS)
19.7 µM: TGI (HOP-92 NSCLC)
32.4 µM: TGI (HCC-2998 colon)
76.2 µM: TGI (HL-60(TB) leukemia)
> 100 µM: TGI (TK-10 renal) | TGI (KM12 colon) | TGI (OVCAR-8 ovarian) | TGI (A549 NSCLC) | TGI (NCI-H226 lung) | TGI (MDA-MB-435) | TGI (CAKI-1 renal) | TGI (BT-549 breast) | TGI (NCI-H23 lung) | TGI (NCI/ADR-RES ovarian) | TGI (DU-145 prostate) | TGI (PC-3 prostate) | TGI (U251 CNS) | TGI (NCI-H460 lung) | TGI (SN12C renal) | TGI (OVCAR-3 ovarian) | TGI (EKVX NSCLC) | TGI (IGROV1 ovarian) | TGI (HS 578T breast) | TGI (SW-620 colon) | TGI (SNB-75 CNS) | TGI (SNB-19 CNS) | TGI (SF-295 CNS) | TGI (CCRF-CEM leukemia) | TGI (ACHN renal) | TGI (OVCAR-4 ovarian) | TGI (HCT-15 colon) | TGI (UO-31 renal) | TGI (786-0 renal) | TGI (HOP-62 NSCLC) | TGI (HCT-116 colon) | TGI (SF-268 CNS) | TGI (OVCAR-5 ovarian) | TGI (MCF7 breast)
77.9 µM: TGI (MOLT-4 leukemia)
73.3 µM: TGI (SR leukemia)
63.9 µM: TGI (SK-MEL-2 melanoma)
49.2 µM: TGI (HT29 colon)
0.088 µM: TGI (SK-OV-3 ovarian)
inactive: GI50 (MDA-MB-231 breast) 2.02 µM | GI50 (TK-10 renal) > 100 µM | GI50 (KM12 colon) 46.2 µM | GI50 (OVCAR-8 ovarian) 32.1 µM | GI50 (SF-539 CNS) 6.85 µM | GI50 (MOLT-4 leukemia) 24.4 µM | GI50 (A549 NSCLC) > 100 µM | GI50 (NCI-H226 lung) > 100 µM | GI50 (MDA-MB-435) 37.1 µM | GI50 (CAKI-1 renal) > 100 µM | GI50 (RPMI-8226 leukemia) 21.9 µM | GI50 (NCI-H23 lung) 51.8 µM | GI50 (SR leukemia) 18.9 µM | GI50 (NCI/ADR-RES ovarian) 75.5 µM | GI50 (LOX IMVI melanoma) 17.5 µM | GI50 (DU-145 prostate) 82.1 µM | GI50 (PC-3 prostate) 58.5 µM | GI50 (U251 CNS) 68.5 µM | GI50 (M14 melanoma) 18.6 µM | GI50 (NCI-H460 lung) 45.9 µM | GI50 (SN12C renal) 78.2 µM | GI50 (OVCAR-3 ovarian) > 100 µM | GI50 (A498 renal) 25.8 µM | GI50 (EKVX NSCLC) 96.7 µM | GI50 (HL-60(TB) leukemia) 26.6 µM | GI50 (MALME-3M melanoma) 16 µM | GI50 (IGROV1 ovarian) > 100 µM | GI50 (HS 578T breast) 25 µM | GI50 (HOP-92 NSCLC) 3.79 µM | GI50 (SW-620 colon) > 100 µM | GI50 (SNB-75 CNS) 19.7 µM | GI50 (SNB-19 CNS) > 100 µM | GI50 (SF-295 CNS) 61.6 µM | GI50 (CCRF-CEM leukemia) 31.3 µM | GI50 (ACHN renal) > 100 µM | GI50 (OVCAR-4 ovarian) 20.6 µM | GI50 (SK-MEL-2 melanoma) 5.01 µM | GI50 (NCI-H522 lung) 21.8 µM | GI50 (SK-MEL-28 melanoma) 18.6 µM | GI50 (HCT-15 colon) 31.4 µM | GI50 (COLO 205 colon) 21.3 µM | GI50 (HCC-2998 colon) 17.1 µM | GI50 (T-47D breast) 17.2 µM | GI50 (UO-31 renal) > 100 µM | GI50 (SK-MEL-5 melanoma) 15 µM | GI50 (786-0 renal) 47.4 µM | GI50 (HOP-62 NSCLC) > 100 µM | GI50 (HCT-116 colon) 36.9 µM | GI50 (HT29 colon) 22.2 µM | GI50 (SF-268 CNS) 64.1 µM | GI50 (OVCAR-5 ovarian) > 100 µM | GI50 (UACC-257 melanoma) 15.3 µM | GI50 (MCF7 breast) 37 µM | GI50 (UACC-62 melanoma) 23.6 µM
37.5 µM: TGI (SK-MEL-28 melanoma)
37.9 µM: TGI (M14 melanoma)
active: GI50 (SK-OV-3 ovarian) 0.0235 µM | GI50 (BT-549 breast) 0.162 µM
48 µM: TGI (RPMI-8226 leukemia)
